# From US10597388B2, “Pyridazinone herbicides” (FMC CORPORATION, priority 2014, dated 2020)
# Assays:
# Experiment in all cases: Test D controlled growth environment herbicide test, pre- and postemergence
# Format in all cases: in vivo
# [1] = system: Russian thistle (Salsola kali)
# In short: (§1)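 Species sown in silt loam and sprayed preemergence, or grown in peat-based medium to 2–18 cm (1- to 4-leaf stage) and sprayed postemergence, with compounds in non-phytotoxic solvent plus surfactant. Visual injury scored versus controls after 14–21 d in a controlled environment, 0 (no effect) to 100 (complete control).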
# [2] = system: barley, winter (winter barley, Hordeum vulgare)
# In short: as §1
# [3] = system: bromegrass, downy (downy bromegrass, Bromus tectorum)
# In short: as §1
# [4] = system: buckwheat, wild (wild buckwheat, Polygonum convolvulus)
# In short: as §1
# [5] = system: canarygrass (Phalaris minor)
# In short: as §1
# [6] = system: chickweed (common chickweed, Stellaria media)
# In short: as §1
# [7] = system: field violet (Viola arvensis)
# In short: as §1
# [8] = system: galium (catchweed bedstraw, Galium aparine)
# In short: as §1
# kochia (Kochia scoparia) = system: kochia (Kochia scoparia)
# In short: as §1
# [9] = system: oat, wild (wild oat, Avena fatua)
# In short: as §1
# [10] = system: pigweed (Amaranthus retroflexus)
# In short: as §1
# [11] = system: radish, wild (wild radish, Raphanus raphanistrum)
# In short: as §1
# [12] = system: windgrass (Apera spica-venti)
# In short: as §1
# [13] = Postemergence, 31 g ai/ha, scale 0 to 100 (0 no effect, 100 complete control)
# [14] = Postemergence, 125 g ai/ha, visual rating on scale 0 (no effect) to 100 (complete control), 14 to 21 d
# [15] = Postemergence, 250 g ai/ha, scale 0 to 100 (0 no effect, 100 complete control)
# [16] = Preemergence, 125 g ai/ha, scale 0 to 100 (0 no effect, 100 complete control)
# [17] = Preemergence, 250 g ai/ha, scale 0 to 100 (0 no effect, 100 complete control)
# [18] = postemergence, 62 g ai/ha, scale 0 to 100, 0 no effect, 100 complete control
# [19] = Preemergence, 62 g ai/ha, scale 0 to 100 (0 no effect, 100 complete control)
smiles,measurement,setting,value
CCC(=O)Oc1c(C)nn(C)c(=O)c1-c1c(C)sc2ccc(Cl)cc12 [Compound 109],Russian Thistle plant response rating,[1]; [13],60
same,"Plant response rating, Russian Thistle",[1]; [14],75
same,"Plant response rating, Russian Thistle",[1]; [15],90
same,"Plant response rating (scale of 0 to 100), Russian Thistle","[1]; Preemergence, 31 g ai/ha",0
same,"Plant response rating (scale of 0 to 100), Russian Thistle","[1]; Preemergence, 62 g ai/ha",20
same,"Plant response rating, Russian Thistle",[1]; [16],35
same,"Plant response rating, Russian Thistle",[1]; [17],50
same,"Plant response rating, Russian Thistle",[1]; [18],75
same,"Barley, Winter plant response rating",[2]; [13],5
same,"Plant response rating, Barley, Winter",[2]; [14],5
same,"Plant response rating, Barley, Winter",[2]; [15],20
same,"Plant response rating (scale of 0 to 100), Barley, Winter","[2]; Preemergence, 31 g ai/ha",0
same,"Plant response rating, Barley, Winter",[2]; [19],0
same,"Plant response rating, Barley, Winter",[2]; [16],0
same,"Plant response rating, Barley, Winter",[2]; [17],10
same,"Plant response rating, Barley, Winter",[2]; [18],0
same,"Bromegrass, Downy plant response rating",[3]; [13],30
same,"Plant response rating, Bromegrass, Downy",[3]; [14],60
same,"Plant response rating, Bromegrass, Downy",[3]; [15],75
same,"Plant response rating (scale of 0 to 100), Bromegrass, Downy","[3]; Preemergence, 31 g ai/ha",0
same,"Plant response rating, Bromegrass, Downy",[3]; [19],30
same,"Plant response rating, Bromegrass, Downy",[3]; [16],65
same,"Plant response rating, Bromegrass, Downy",[3]; [17],65
same,"Plant response rating, Bromegrass, Downy",[3]; [18],30
same,"Buckwheat, Wild plant response rating",[4]; [13],95
same,"Plant response rating, Buckwheat, Wild",[4]; [14],100
same,"Plant response rating, Buckwheat, Wild",[4]; [15],100
same,"Plant response rating (scale of 0 to 100), Buckwheat, Wild","[4]; Preemergence, 31 g ai/ha",0
same,"Plant response rating, Buckwheat, Wild",[4]; [19],20
same,"Plant response rating, Buckwheat, Wild",[4]; [16],30
same,"Plant response rating, Buckwheat, Wild",[4]; [17],75
same,"Plant response rating, Buckwheat, Wild",[4]; [18],95
same,Canarygrass plant response rating,[5]; [13],40
same,"Plant response rating, Canarygrass",[5]; [14],80
same,"Plant response rating, Canarygrass",[5]; [15],90
same,"Plant response rating (scale of 0 to 100), Canarygrass","[5]; Preemergence, 31 g ai/ha",35
same,"Plant response rating (scale of 0 to 100), Canarygrass","[5]; Preemergence, 62 g ai/ha",75
same,"Plant response rating, Canarygrass",[5]; [16],90
same,"Plant response rating, Canarygrass",[5]; [17],98
same,"Plant response rating, Canarygrass",[5]; [18],55
same,Chickweed plant response rating,[6]; [13],100
same,"Plant response rating, Chickweed",[6]; [14],100
same,"Plant response rating, Chickweed",[6]; [15],100
same,"Plant response rating (scale of 0 to 100), Chickweed","[6]; Preemergence, 31 g ai/ha",100
same,"Plant response rating (scale of 0 to 100), Chickweed","[6]; Preemergence, 62 g ai/ha",100
same,"Plant response rating, Chickweed",[6]; [16],100
same,"Plant response rating, Chickweed",[6]; [17],100
same,"Plant response rating, Chickweed",[6]; [18],100
same,Field Violet plant response rating,[7]; [13],90
same,"Plant response rating, Field Violet",[7]; [14],100
same,"Plant response rating, Field Violet",[7]; [15],100
same,"Plant response rating (scale of 0 to 100), Field Violet","[7]; Preemergence, 31 g ai/ha",85
same,"Plant response rating (scale of 0 to 100), Field Violet","[7]; Preemergence, 62 g ai/ha",100
same,"Plant response rating, Field Violet",[7]; [16],100
same,"Plant response rating, Field Violet",[7]; [17],100
same,"Plant response rating, Field Violet",[7]; [18],95
same,Galium plant response rating,[8]; [13],100
same,"Plant response rating, Galium",[8]; [14],100
same,"Plant response rating, Galium",[8]; [15],100
same,"Plant response rating (scale of 0 to 100), Galium","[8]; Preemergence, 31 g ai/ha",40
same,"Plant response rating (scale of 0 to 100), Galium","[8]; Preemergence, 62 g ai/ha",75
same,"Plant response rating, Galium",[8]; [16],100
same,"Plant response rating, Galium",[8]; [17],100
same,"Plant response rating, Galium",[8]; [18],100
same,Kochia plant response rating,kochia (Kochia scoparia); [13],95
same,"Plant response rating, Kochia",kochia (Kochia scoparia); [14],100
same,"Plant response rating, Kochia",kochia (Kochia scoparia); [15],100
same,"Plant response rating (scale of 0 to 100), Kochia","kochia (Kochia scoparia); Preemergence, 31 g ai/ha",20
same,"Plant response rating (scale of 0 to 100), Kochia","kochia (Kochia scoparia); Preemergence, 62 g ai/ha",70
same,"Plant response rating, Kochia",kochia (Kochia scoparia); [16],80
same,"Plant response rating, Kochia",kochia (Kochia scoparia); [17],100
same,"Plant response rating, Kochia",kochia (Kochia scoparia); [18],100
same,"Oat, Wild plant response rating",[9]; [13],95
same,"Plant response rating, Oat, Wild",[9]; [14],95
same,"Plant response rating, Oat, Wild",[9]; [15],100
same,"Plant response rating (scale of 0 to 100), Oat, Wild","[9]; Preemergence, 31 g ai/ha",75
same,"Plant response rating (scale of 0 to 100), Oat, Wild","[9]; Preemergence, 62 g ai/ha",80
same,"Plant response rating, Oat, Wild",[9]; [16],90
same,"Plant response rating, Oat, Wild",[9]; [17],90
same,"Plant response rating, Oat, Wild",[9]; [18],95
same,Pigweed plant response rating,[10]; [13],85
same,"Plant response rating, Pigweed",[10]; [14],100
same,"Plant response rating, Pigweed",[10]; [15],100
same,"Plant response rating (scale of 0 to 100), Pigweed","[10]; Preemergence, 31 g ai/ha",100
same,"Plant response rating (scale of 0 to 100), Pigweed","[10]; Preemergence, 62 g ai/ha",100
same,"Plant response rating, Pigweed",[10]; [16],100
same,"Plant response rating, Pigweed",[10]; [17],100
same,"Plant response rating, Pigweed",[10]; [18],85
same,"Radish, Wild plant response rating",[11]; [13],75
same,"Plant response rating, Radish, Wild",[11]; [14],90
same,"Plant response rating, Radish, Wild",[11]; [15],100
same,"Plant response rating (scale of 0 to 100), Radish, Wild","[11]; Preemergence, 31 g ai/ha",25
same,"Plant response rating (scale of 0 to 100), Radish, Wild","[11]; Preemergence, 62 g ai/ha",75
same,"Plant response rating, Radish, Wild",[11]; [16],90
same,"Plant response rating, Radish, Wild",[11]; [17],95
same,"Plant response rating, Radish, Wild",[11]; [18],75
same,Windgrass plant response rating,[12]; [13],60
same,"Plant response rating, Windgrass",[12]; [14],80
same,"Plant response rating, Windgrass",[12]; [15],90
same,"Plant response rating (scale of 0 to 100), Windgrass","[12]; Preemergence, 31 g ai/ha",55
same,"Plant response rating (scale of 0 to 100), Windgrass","[12]; Preemergence, 62 g ai/ha",60
same,"Plant response rating, Windgrass",[12]; [16],80
same,"Plant response rating, Windgrass",[12]; [17],100
same,"Plant response rating, Windgrass",[12]; [18],65
